Assay results taken from US5965619A, “Method for treating patients having precancerous lesions with substituted indene derivatives” (Cell Pathways Inc., priority 1997, dated 1999).
Values belong to the molecule of their own block, whether it stands above or below them.

Experiments:
[1] = test system: human colon carcinoma cell line, HT-29; test: HT-29 tumor cell growth inhibition, Sulforhodamine B (SRB) protein binding assay; format: cell-based; conditions: 144 h, six days continuous exposure
Protocol: These compounds were assayed for their effect on the human colon carcinoma cell line, HT-29 obtained from ATCC, (Rockville, Md.) to ascertain the degree of growth inhibition. Growth inhibition of this cell line is indicative of a benefit on precancerous lesions and neoplasms. The cell line and growth assay employed for these experiments is well characterized, and is used by the United States National Cancer Institute in its screening program for new anti-cancer drugs.
Drug stock solutions were made in 100% DMSO then diluted with RPMI media for cell culture testing. All drug solutions were prepared fresh on the day of testing. The cultured cells were obtained at passage #118 and grown in RPMI media supplemented with 5% fetal calf serum, and 2 mM glutamine, 100 U/ml penicillin, 100 U/ml streptomycin, and 0.25 μg/ml amphotericin. The cultures were maintained in a humidified atmosphere of 95% air and 5% CO2 at 37° C. The cultures were passaged at preconfluent densities using a solution of 0.05% trypsin and 0.53 mM EDTA. All experiments involved HT-29 cells between passages 120 and 140. Cells were plated at the following densities to obtain cultures used for the experiments: 500 cells/well for 96 well flat-bottom microtiter plates, 1×10^6 cells per 25 cm^2 flask.
Tumor cell growth inhibition was assessed using the Sulforhodamine B (SRB) protein binding assay. In this assay, tumor cells were plated in 96-well plates and treated with drug-containing media for six days (continuous exposure). For each plate, 6 wells were designated as no treatment controls, six wells as vehicle (0.1% DMSO) controls, and the remaining wells for drug dilutions with six wells per drug concentration. At the end of the exposure period, the cells were fixed and stained with sulforhodamine B, a protein binding dye. The dye was then solubilized, and the optical density of the resulting solution was determined on a 96-well plate reader. The mean dye intensity of the treated wells was then divided by the mean dye intensity in the control wells (6 wells of each) to determine the effect of the drug on the cells. Dye intensity is proportional to the number of cells or amount of protein per well. The resultant "percent inhibition" value then represents the degree of growth inhibition caused by the drug.
For each experiment, an IC50 value was determined and used for comparative purposes. This value is equivalent to the concentration of drug needed to inhibit tumor cell growth by 50%. IC50 values were obtained graphically by connecting the mean values for each drug concentration tested. Each experiment included at least six wells per drug concentration. Concentration was plotted on a log scale on the X-axis.

purified COX = test: Cyclooxygenase (COX) inhibition, purified COX from ram seminal vesicles; format: biochemical; conditions: 100 μM dose; arachidonic acid 100 uM, 2.0 min at 37° C.
Protocol: Compounds of this invention, as well as several others (sce Table 2 below), were evaluated to determine whether they inhibited the production of prostaglandin according to the procedure below. COX is involved in the formation of prostaglandins and thromboxane by the oxidative metabolism of arachidonic acid. […] Briefly, purified COX was incubated with arachidonic acid (100 uM) for 2.0 min at 37° C. in the presence or absence of test compounds. The assay was terminated by the addition of TCA, and COX activity was determined by absorbance at 530 nm.

[2] = test system: DMBA-Induced Mammary Lesions; test: Mouse mammary gland organ culture, DMBA-induced mammary lesions; format: cell-based, mouse (female BALB/c); conditions: 15 glands per group
Protocol: The compound of Example No. 17(d) was also tested for its ability to inhibit the incidence of mammary lesions in an organ culture system. This mouse mammary gland organ culture technique has been successfully used by other investigators to study the effects of known cancer-chemopreventativeagents such as retinoids and selenium.
Female BALB/c mice, 28 days old, were treated for nine days with a combination of 1 μg of estradiol and 1 mg of progesterone daily, in order to prime the glands to be responsive to hormones in vitro. The animals were sacrificed and thoracic mammary glands were excised aseptically and incubated for ten days in growth media supplemented with growth-promoting hormones: insulin, prolactin, and hydrocortisone, at 5 μg/ml each and aldosterone at 1 μg/ml. A twenty-four hour treatment of 7,12-dimethylbenz(a)anthracene (DMBA, 2 μg/ml) was carried out between days three and four to induce the formation of mammary lesions. Fully developed glands were deprived of prolactin, hydrocortisone, and aldosterone for 14 days, resulting in the regression of the glands but not the mammary lesions.
In order to evaluate the effects of Compound No. 17(d), it was dissolved in DMSO and added to the culture media supplemented for the duration of the culture period. At the end of the culture period, the glands were fixed in 10% formalin, stained with alum carmine, and mounted on glass slides. The incidence of forming mammary lesions is the ratio of the glands with mammary lesions and glands without lesions. The incidence of mammary lesions in compound 17(d) treated glands was compared with that of the untreated glands.
The extent of the area occupied by the mammary lesions was quantitated by projecting an image of the gland onto a digitation pad. The area covered by the gland was traced on the pad and considered as 100% of the area, The space covered by each of the unregressed structures was also outlined on the digitization pad and quantitated by the computer.

prostaglandin synthesis = conditions: cited from earlier work
precancerous lesions = conditions: cited from earlier work
colonic polyps = conditions: cited from earlier work

Compound: COc1cc(OC)c(/C=C2/C(C)=C(CC(=O)O)c3cc(F)ccc32)c(OC)c1 [17(e), (Z)-5-fluoro-2-methyl-1-(2,4,6-trimethoxybenzylidene)-3-indenylacetic acid]
IC50 [1]: 61 µM

Compound: COc1ccc(/C=C2/C(C)=C(CC(=O)O)c3cc(F)ccc32)c(OC)c1OC [17(f), (Z)-5-fluoro-2-methyl-1-(2,3,4-trimethoxybenzylidene)-3-indenylacetic acid]
IC50 [1]: 40 µM

Compound: CSc1ccc(/C=C2/C(C)=C(CC(=O)O)c3cc(F)ccc32)cc1 [Sulindac Sulfide, reference compound]
% Inhibition (purified COX): 86%
activity as inhibitor of prostaglandin synthesis (prostaglandin synthesis): active moiety as a prostaglandin synthesis inhibitor

Compound: CC1=C(CC(=O)O)c2cc(F)ccc2/C1=C\c1ccc(S(C)(=O)=O)cc1 [sulfone]
activity as inhibitor of precancerous lesions (precancerous lesions): active as an inhibitor of precancerous lesions
activity as inhibitor of prostaglandin synthesis (prostaglandin synthesis): inactive as an inhibitor of prostaglandin synthesis

Compound: CC1=C(CC(=O)O)c2cc(F)ccc2/C1=C\c1ccc([S+](C)[O-])cc1 (stereo not drawn) [sulindac]
effect on polyps when patients take the drug (colonic polyps): Polyps virtually disappear

Continued, in another order:

IC50 [1]: 29 µM
Compound: COc1ccc(/C=C2/C(C)=C(CC(=O)O)c3cc(F)ccc32)cc1 [16(e), (Z)-5-fluoro-2-methyl-1-(p-methoxy-benzylidene)-3-indenylacetic acid]

IC50 [1]: 40 µM
Compound: CC1=C(CC(=O)O)c2cc(F)ccc2/C1=C\c1ccccc1 [17(a), (Z)-5-fluoro-2-methyl-1-benzylidene-3-indenylacetic acid]

IC50 [1]: 58 µM
Compound: CC1=C(CC(=O)O)c2cc(F)ccc2/C1=C\c1ccc(Cl)cc1 [17(b), (Z)-5-fluoro-2-methyl-1-(4-chlorobenzylidene)-3-indenylacetic acid]

IC50 [1]: 40 µM
Compound: COc1cc(OC)c(OC)cc1/C=C1/C(C)=C(CC(=O)O)c2cc(F)ccc21 [17(g), (Z)-5-fluoro-2-methyl-1-(2,4,5-trimethoxybenzylidene)-3-indenylacetic acid]

IC50 [1]: 31 µM
Compound: CC1=C(CC(=O)O)c2cc(F)ccc2/C1=C\c1c(Cl)cccc1Cl [17(h), (Z)-5-fluoro-2-methyl-1-(2,6-dichlorobenzylidene)-3-indenylacetic acid]

% Inhibition (purified COX): No inhibition
IC50 [1]: 39 µM
Compound: COc1cc(/C=C2/C(C)=C(CC(=O)O)c3cc(F)ccc32)cc(OC)c1OC [Example 17(d), (Z)-5-fluoro-2-methyl-1-(3,4,5-trimethoxybenzylidene)-3-indenylacetic acid]
Glands with Lesions ([2]; 10 μm): 5
Percent Incidence ([2]; 10 μm): 33.33%
Glands with Lesions ([2]; 100 μm): 0
Percent Incidence ([2]; 100 μm): 0.00%
